Measurements reported in patent US12428406B2 (PMV Pharmaceuticals, Inc., priority 2019, dated 2025).

Target: T1, p53 Y220C (Homo sapiens, UniProt P04637, Y220C)
T1 construct: The recombinant protein was a truncation mutant containing only amino acids 94-312 of p53; made in house; host or cells: E. coli
Experiment: In vitro DNA binding activity assay (HTRF / TR-FRET): stabilization of p53 Y220C and increase of its DNA binding activity
Assay type: biochemical
Conditions: recombinant His-tagged p53 Y220C DNA binding domain (aa 94-312), biotin-labeled consensus DNA, incubated at 27° C. or 29° C. for 60 min
Procedure, shortened: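 Stabilization of the mutant is inferred from increased binding of His-tagged p53 Y220C to a biotin-labeled consensus DNA, detected by HTRF with europium-streptavidin and APC-anti-His antibody. The concentration giving a 50% rise over compound-free binding is reported as SC150.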

T1 sequence (P04637 94-312, change not shown): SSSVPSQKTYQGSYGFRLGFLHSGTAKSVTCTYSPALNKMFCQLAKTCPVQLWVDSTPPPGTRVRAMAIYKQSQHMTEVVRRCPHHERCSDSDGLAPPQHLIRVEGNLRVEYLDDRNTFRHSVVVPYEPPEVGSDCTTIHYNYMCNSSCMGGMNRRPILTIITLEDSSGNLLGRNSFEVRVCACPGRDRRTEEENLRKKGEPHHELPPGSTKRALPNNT

SC150 (concentration of the compound required to increase the DNA binding activity by 50%), + (+ = 0 μM ≤ SC150 < 0.05 μM):
COc1cc(C(=O)N(C)C)ccc1NCC#Cc1cc2c(N[C@@H]3CCN(C)C[C@@H]3F)cccc2n1CC(F)(F)F [Compound 942A, 4-{[3-(4-{[(3S,4R)-3-fluoro-1-methylpiperidin-4-yl]amino}-1-(2,2,2-trifluoroethyl)-1H-indol-2-yl)prop-2-yn-1-yl]amino}-3-methoxy-N,N-dimethylbenzamide]
COc1cc(C(=O)N(C)C(C)C)ccc1NCC#Cc1cc2c(N[C@@H]3CCN(C)C[C@@H]3F)cccc2n1CC(F)(F)F [Compound 944A, 4-{[3-(4-{[(3S,4R)-3-fluoro-1-methylpiperidin-4-yl]amino}-1-(2,2,2-trifluoroethyl)-1H-indol-2-yl)prop-2-yn-1-yl]amino}-3-methoxy-N-methyl-N-(propan-2-yl)benzamide]
COCCNC(=O)c1ccc(NCC#Cc2cc3c(N[C@@H]4CCN(C)C[C@@H]4F)cccc3n2CC(F)(F)F)c(OC)c1 [Compound 945A, 4-{[3-(4-{[(3S,4R)-3-fluoro-1-methylpiperidin-4-yl]amino}-1-(2,2,2-trifluoroethyl)-1H-indol-2-yl)prop-2-yn-1-yl]amino}-3-methoxy-N-(2-methoxyethyl)benzamide]
CCN(CC)CCNC(=O)c1ccc(NCC#Cc2cc3c(N[C@@H]4CCN(C)C[C@@H]4F)cccc3n2CC(F)(F)F)c(OC)c1 [Compound 946A]
COc1cc(C(=O)NCCO)ccc1NCC#Cc1cc2c(N[C@@H]3CCN(C)C[C@@H]3F)cccc2n1CC(F)(F)F [Compound 947A]
COc1cc(C(=O)N[C@@H]2[C@@H](O)[C@H](O)[C@@H](CO)O[C@H]2O)ccc1NCC#Cc1cc2c(N[C@@H]3CCN(C)C[C@@H]3F)cccc2n1CC(F)(F)F [Compound 948A, 4-((3-(4-(((3S,4R)-3-fluoro-1-methylpiperidin-4-yl)amino)-1-(2,2,2-trifluoroethyl)-1H-indol-2-yl)prop-2-yn-1-yl)amino)-3-methoxy-N-((2R,3R,4R,5S,6R)-2,4,5-trihydroxy-6-(hydroxymethyl)tetrahydro-2H-pyran-3-yl)benzamide]
COc1cc(C(=O)N[C@H](C)CO)ccc1NCC#Cc1cc2c(N[C@@H]3CCN(C)C[C@@H]3F)cccc2n1CC(F)(F)F [Compound 950A, 4-{[3-(4-{[(3S,4R)-3-fluoro-1-methylpiperidin-4-yl]amino}-1-(2,2,2-trifluoroethyl)-1H-indol-2-yl)prop-2-yn-1-yl]amino}-N-[(2R)-1-hydroxypropan-2-yl]-3-methoxybenzamide]
CN1CC[C@@H](Nc2cccc3c2cc(C#CCNC(=O)C2CC2)n3CC(F)(F)F)[C@@H](F)C1 [Compound 951A, N-[3-(4-{[(3S,4R)-3-fluoro-1-methylpiperidin-4-yl]amino}-1-(2,2,2-trifluoroethyl)-1H-indol-2-yl)prop-2-yn-1-yl]cyclopropanecarboxamide]
CN1CC[C@@H](Nc2cccc3c2cc(C#CCNC(=O)[C@@H]2C[C@H]2c2ccccc2)n3CC(F)(F)F)[C@@H](F)C1 [Compound 952A, (1R,2R)—N-[3-(4-{[(3S,4R)-3-fluoro-1-methylpiperidin-4-yl]amino}-1-(2,2,2-trifluoroethyl)-1H-indol-2-yl)prop-2-yn-1-yl]-2-phenylcyclopropane-1-carboxamide]
CN1CC[C@@H](Nc2cccc3c2cc(C#CCNC(=O)c2ccn(C)c2)n3CC(F)(F)F)[C@@H](F)C1 [Compound 953A, N-[3-(4-{[(3S,4R)-3-fluoro-1-methylpiperidin-4-yl]amino}-1-(2,2,2-trifluoroethyl)-1H-indol-2-yl)prop-2-yn-1-yl]-1-methyl-1H-pyrrole-3-carboxamide]
CCn1ccc(C(=O)NCC#Cc2cc3c(N[C@@H]4CCN(C)C[C@@H]4F)cccc3n2CC(F)(F)F)c1 [Compound 954A, 1-ethyl-N-[3-(4-{[(3S,4R)-3-fluoro-1-methylpiperidin-4-yl]amino}-1-(2,2,2-trifluoroethyl)-1H-indol-2-yl)prop-2-yn-1-yl]-1H-pyrrole-3-carboxamide]
CN1CC[C@@H](Nc2cccc3c2cc(C#CCNC(=O)c2ccn(C(C)(C)C)c2)n3CC(F)(F)F)[C@@H](F)C1 [Compound 955A, 1-tert-butyl-N-[3-(4-{[(3S,4R)-3-fluoro-1-methylpiperidin-4-yl]amino}-1-(2,2,2-trifluoroethyl)-1H-indol-2-yl)prop-2-yn-1-yl]-1H-pyrrole-3-carboxamide]
COC(=O)[C@H](CCC(N)=O)NC(=O)c1ccc(NCC#Cc2cc3c(N[C@@H]4CCN(C)C[C@@H]4F)cccc3n2CC(F)(F)F)c(OC)c1 [Compound 956A, methyl (2S)-4-carbamoyl-2-[(4-{[3-(4-{[(3S,4R)-3-fluoro-1-methylpiperidin-4-yl]amino}-1-(2,2,2-trifluoroethyl)-1H-indol-2-yl)prop-2-yn-1-yl]amino}-3-methoxyphenyl)formamido]butanoate]
COc1cc(C(=O)NC[C@@H](C)O)ccc1NCC#Cc1cc2c(N[C@@H]3CCN(C)C[C@@H]3F)cccc2n1CC(F)(F)F [Compound 957A, 4-((3-(4-(((3S,4R)-3-fluoro-1-methylpiperidin-4-yl)amino)-1-(2,2,2-trifluoroethyl)-1H-indol-2-yl)prop-2-yn-1-yl)amino)-N—((R)-2-hydroxypropyl)-3-methoxybenzamide]
COCC(O)CNC(=O)c1ccc(NCC#Cc2cc3c(N[C@@H]4CCN(C)C[C@@H]4F)cccc3n2CC(F)(F)F)c(OC)c1 (stereo partly shown) [Compound 960A]
COc1cc(C(=O)NC[C@H](C)O)ccc1NCC#Cc1cc2c(N[C@@H]3CCN(C)C[C@@H]3F)cccc2n1CC(F)(F)F [Compound 961A, 4-{[3-(4-{[(3S,4R)-3-fluoro-1-methylpiperidin-4-yl]amino}-1-(2,2,2-trifluoroethyl)-1H-indol-2-yl)prop-2-yn-1-yl]amino}-N-[(2S)-2-hydroxypropyl]-3-methoxybenzamide]
COc1cc(C(=O)NC[C@H](O)CO)ccc1NCC#Cc1cc2c(N[C@@H]3CCN(C)C[C@@H]3F)cccc2n1CC(F)(F)F [Compound 964A, N-[(2S)-2,3-dihydroxypropyl]-4-{[3-(4-{[(3S,4R)-3-fluoro-1-methylpiperidin-4-yl]amino}-1-(2,2,2-trifluoroethyl)-1H-indol-2-yl)prop-2-yn-1-yl]amino}-3-methoxybenzamide]
COc1cc(C(=O)NC(CCO)CCO)ccc1NCC#Cc1cc2c(N[C@@H]3CCN(C)C[C@@H]3F)cccc2n1CC(F)(F)F [Compound 965A, N-(1,5-dihydroxypentan-3-yl)-4-{[3-(4-{[(3S,4R)-3-fluoro-1-methylpiperidin-4-yl]amino}-1-(2,2,2-trifluoroethyl)-1H-indol-2-yl)prop-2-yn-1-yl]amino}-3-methoxybenzamide]
COc1cc(C(=O)NCC(COC(=O)C(C)C)OC(=O)C(C)C)ccc1NCC#Cc1cc2c(N[C@@H]3CCN(C)C[C@@H]3F)cccc2n1CC(F)(F)F (stereo partly drawn) [Compound 967A, 1-[(4-{[3-(4-{[(3S,4R)-3-fluoro-1-methylpiperidin-4-yl]amino}-1-(2,2,2-trifluoroethyl)-1H-indol-2-yl)prop-2-yn-1-yl]amino}-3-methoxyphenyl)formamido]-3-[(2-methylpropanoyl)oxy]propan-2-yl 2-methylpropanoate]
COc1cc(C(=O)NCC2COC(=O)O2)ccc1NCC#Cc1cc2c(N[C@@H]3CCN(C)C[C@@H]3F)cccc2n1CC(F)(F)F (stereo partly drawn) [Compound 968A, 4-{1[3-(4-{1[(3S,4R)-3-fluoro-1-methylpiperidin-4-yl]amino}-1-(2,2,2-trifluoroethyl)-1H-indol-2-yl)prop-2-yn-1-yl]amino}-3-methoxy-N-[(2-oxo-1,3-dioxolan-4-yl)methyl]benzamide]
COc1cc(C(=O)NCCS(C)(=O)=O)ccc1NCC#Cc1cc2c(N[C@@H]3CCN(C)C[C@@H]3F)cccc2n1CC(F)(F)F [Compound 969A, 4-{[3-(4-{[(3S,4R)-3-fluoro-1-methylpiperidin-4-yl]amino}-1-(2,2,2-trifluoroethyl)-1H-indol-2-yl)prop-2-yn-1-yl]amino}-N-(2-methanesulfonylethyl)-3-methoxybenzamide]
COc1cc(C(=O)NCC(COC(C)=O)OC(C)=O)ccc1NCC#Cc1cc2c(N[C@@H]3CCN(C)C[C@@H]3F)cccc2n1CC(F)(F)F (stereo partly drawn) [Compound 970A, 1-(acetyloxy)-3-[(4-{[3-(4-{[(3S,4R)-3-fluoro-1-methylpiperidin-4-yl]amino}-1-(2,2,2-trifluoroethyl)-1H-indol-2-yl)prop-2-yn-1-yl]amino}-3-methoxyphenyl)formamido]propan-2-yl acetate]
